The results in this text go back to ChEMBL document CHEMBL1151009, “Synthesis and pharmacological evaluation of combined Thromboxane receptor antagonists/thromboxane synthase inhibitors: Pyridine-containing amino-prostanoids” (Bioorg Med Chem Lett, 1991).

The target of one experiment is T1, Thromboxane-A synthase (Homo sapiens, UniProt P24557).
T1 sequence (P24557 whole entry): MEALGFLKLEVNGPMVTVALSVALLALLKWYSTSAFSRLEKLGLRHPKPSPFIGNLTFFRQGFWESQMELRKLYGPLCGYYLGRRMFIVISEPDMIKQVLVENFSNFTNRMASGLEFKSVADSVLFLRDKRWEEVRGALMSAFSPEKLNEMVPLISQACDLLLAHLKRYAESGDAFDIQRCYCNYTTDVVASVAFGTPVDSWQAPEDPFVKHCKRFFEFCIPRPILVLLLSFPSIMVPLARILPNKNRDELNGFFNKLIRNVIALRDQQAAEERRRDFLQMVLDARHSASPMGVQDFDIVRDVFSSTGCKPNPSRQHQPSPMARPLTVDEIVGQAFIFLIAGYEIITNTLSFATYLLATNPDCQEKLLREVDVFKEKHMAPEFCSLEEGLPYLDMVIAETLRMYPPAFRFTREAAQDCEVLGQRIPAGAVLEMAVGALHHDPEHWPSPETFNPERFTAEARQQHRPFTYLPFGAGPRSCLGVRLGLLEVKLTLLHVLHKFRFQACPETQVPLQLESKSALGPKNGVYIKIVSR
Nature of the experiment: In vitro TXA2 synthase antagonism through inhibition of collagen induced thromboxane-A2 production in human citreated whole blood. Type of experiment: functional, tissue-based.

Experiment [1] deals with T2, Thromboxane A2 receptor (Homo sapiens, UniProt P21731).
T2 sequence (P21731 whole entry): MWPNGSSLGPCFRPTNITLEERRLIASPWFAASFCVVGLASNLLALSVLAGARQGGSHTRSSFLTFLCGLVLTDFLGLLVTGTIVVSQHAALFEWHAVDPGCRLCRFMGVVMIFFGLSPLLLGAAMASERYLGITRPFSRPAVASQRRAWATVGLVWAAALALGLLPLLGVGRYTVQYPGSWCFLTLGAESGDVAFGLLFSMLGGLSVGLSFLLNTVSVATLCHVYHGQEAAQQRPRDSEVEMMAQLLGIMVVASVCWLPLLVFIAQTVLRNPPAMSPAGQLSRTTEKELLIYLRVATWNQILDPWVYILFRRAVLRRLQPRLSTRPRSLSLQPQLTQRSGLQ
Nature of the experiment: In vitro thromboxane A2 receptor antagonism through inhibition of U-46619-induced platelet aggregation in human whole blood. Type of experiment: functional, tissue-based. Conditions: read-out: pA2 (converted).

Experiment [2] addresses T3, Thromboxane A2 receptor (Rattus norvegicus, UniProt P34978).
T3 sequence (P34978 whole entry): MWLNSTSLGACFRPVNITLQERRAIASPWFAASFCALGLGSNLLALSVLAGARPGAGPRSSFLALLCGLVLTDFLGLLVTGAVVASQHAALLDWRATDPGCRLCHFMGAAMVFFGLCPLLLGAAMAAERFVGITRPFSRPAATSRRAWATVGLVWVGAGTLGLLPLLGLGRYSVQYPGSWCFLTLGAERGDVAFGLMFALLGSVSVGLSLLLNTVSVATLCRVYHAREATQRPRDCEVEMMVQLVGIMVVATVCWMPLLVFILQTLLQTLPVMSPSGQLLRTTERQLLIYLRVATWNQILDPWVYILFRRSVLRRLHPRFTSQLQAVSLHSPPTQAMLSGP
Nature of the experiment: In vitro thromboxane A2 receptor antagonism through inhibition of U-46619-induced contraction of rat isolated thoracic aortic strip. The experiment is classed as functional. The following applies: read-out: pA2 (converted).

At Thromboxane-A synthase, `CCCCc1ccncc1-c1ccc(CO[C@@H]2CC[C@H](N3CCCCCC3)[C@H]2OC/C=C\CCC(=O)O)cc1` had an IC50 of 100 nM. In addition, the Kb on Thromboxane A2 receptor [1] was 3.98 nM; at Thromboxane A2 receptor [2], 10 nM.
On the same counts, the results for `O=C(O)CC/C=C\CO[C@H]1[C@H](OCc2ccc(-c3cncc(CO)c3)cc2)CC[C@@H]1N1CCCCCC1` are more than 10000 nM, 6.31 nM and 25.1 nM.
Taken in the same sequence, the figures for `CCCc1ccncc1-c1ccc(CO[C@@H]2CC[C@H](N3CCCCCC3)[C@H]2OC/C=C\CCC(=O)O)cc1` were 100 nM, 2.51 nM and 31.6 nM.
On Thromboxane-A synthase, `O=C(O)CC/C=C\CO[C@H]1[C@H](OCc2ccc(-c3cnccc3CO)cc2)CC[C@@H]1N1CCCCCC1` had an IC50 of 1580 nM. The Kb was 3.16 nM at Thromboxane A2 receptor [1] and 12.6 nM on Thromboxane A2 receptor [2].
The compound `Cc1cnccc1-c1ccc(CO[C@@H]2CC[C@H](N3CCCCCC3)[C@H]2OC/C=C\CCC(=O)O)cc1` had a concentration for half-maximal inhibition (IC50) on Thromboxane-A synthase of 1580 nM. Moreover, the results for the Kb at Thromboxane A2 receptor [1] and on Thromboxane A2 receptor [2] were 6.31 nM and 20 nM, respectively.
On the same counts, the results for `O=C(O)CC/C=C\CO[C@H]1[C@H](OCc2ccc(-c3cnccc3CCO)cc2)CC[C@@H]1N1CCCCCC1` are more than 10000 nM, 3.16 nM and 3.16 nM.
In the case of `O=C(O)CC/C=C\CO[C@H]1[C@H](OCc2ccc(-c3ccncc3CO)cc2)CC[C@@H]1N1CCCCCC1`, the figures for the Kb at Thromboxane A2 receptor [1] and at Thromboxane A2 receptor [2] were 3.16 nM and 15.8 nM, respectively.
On Thromboxane-A synthase, `O=C(O)CC/C=C\CO[C@H]1[C@H](OCc2ccc(-c3cccnc3CO)cc2)CC[C@@H]1N1CCCCCC1` gave an IC50 of more than 10000 nM. The Kb at Thromboxane A2 receptor [1] and on Thromboxane A2 receptor [2] was 3.16 nM each time.
`O=C(O)CC/C=C\CO[C@H]1[C@H](OCc2ccc(-c3ccncc3)cc2)CC[C@@H]1N1CCCCCC1`: half-maximal inhibition at Thromboxane-A synthase (IC50) was put at 631 nM. For the same compound, the values for the Kb on Thromboxane A2 receptor [1] and on Thromboxane A2 receptor [2] were 10 nM and 79.4 nM, respectively.
On the same counts, the results for `CC(C)(C)c1ccncc1-c1ccc(CO[C@@H]2CC[C@H](N3CCCCCC3)[C@H]2OC/C=C\CCC(=O)O)cc1` are more than 10000 nM, 3.16 nM and 3.16 nM.
On the same counts, the results for `Cc1ccncc1-c1ccc(CO[C@@H]2CC[C@H](N3CCCCCC3)[C@H]2OC/C=C\CCC(=O)O)cc1` are 100 nM, 2.51 nM and 31.6 nM.
Take `CCc1cnccc1-c1ccc(CO[C@@H]2CC[C@H](N3CCCCCC3)[C@H]2OC/C=C\CCC(=O)O)cc1`: the half-maximal inhibitory concentration (IC50) against Thromboxane-A synthase is 398 nM. Further, the figures for the Kb on Thromboxane A2 receptor [1] and on Thromboxane A2 receptor [2] were 6.31 nM and 15.8 nM, respectively.
As for `CCc1ccncc1-c1ccc(CO[C@@H]2CC[C@H](N3CCCCCC3)[C@H]2OC/C=C\CCC(=O)O)cc1`, the IC50 against Thromboxane-A synthase is 2510 nM. Besides, the Kb is 1 nM on Thromboxane A2 receptor [1] and 10 nM at Thromboxane A2 receptor [2].
On the same counts, the results for `O=C(O)CC/C=C\CO[C@H]1[C@H](OCc2ccc(-c3cccnc3)cc2)CC[C@@H]1N1CCCCCC1` are 631 nM, 12.6 nM and 39.8 nM.
Turning to `O=C(O)CCCC/C=C(\c1ccccc1)c1cccnc1` [(E)-ISBOGREL], the Kb is 15800 nM on Thromboxane A2 receptor [1] and 6310 nM at Thromboxane A2 receptor [2].
With `O=C(O)CCCCO/N=C(/c1cccnc1)c1cccc(C(F)(F)F)c1` [RIDOGREL], at Thromboxane-A synthase, the IC50 is 31.6 nM. The Kb on Thromboxane A2 receptor [1] was 3980 nM; on Thromboxane A2 receptor [2], 1260 nM.

One may read the IC50 as the concentration that inhibits the measured activity by half. A high value points to lower potency.
